Measurements from patent publication US20090156399A1, “Synergistic Insecticide Mixtures” (Bayer CropScience AG, priority 2005, published 2009).

Tested on: Myzus persicae
Assay: Myzus persicae test (cabbage leaf dip)
Assay type: in vivo
Source text: The expected activity for a given combination of two active compounds can be calculated (cf. COLBY, S. R.; “Calculating Synergistic and Antagonistic Responses of Herbicide Combinations”, Weeds 15, pages 20-22, 1967):
if • X=the kill rate, expressed in % of the untreated control, when employing active compound A at an application rate of m ppm, • Y=the kill rate, expressed in % of the untreated control, when employing active compound B at an application rate of n ppm, • E=the kill rate, expressed in % of the untreated control, when employing active compounds A and B at application rates of m and n ppm, then
If the actual insecticidal kill rate is higher than the calculated one, the kill rates of the combination are superadditive, i.e. a synergistic effect is present. In this case, the kill rate that is actually observed has to be higher than the value, calculated using the formula above, for the expected kill rate (E).
To produce a suitable preparation of active compound, 1 part by weight of active compound is mixed with the stated amounts of solvent and emulsifier, and the concentrate is diluted with emulsifier-containing water to the desired concentration. […]
After the desired period of time, the kill in % is determined. […] The determined kill rates are entered into Colby's formula (see page 27).

| Structure (SMILES) | Kill in % after 6d (0.16 ppm, cabbage leaves dipped, after 6 d) [%] | Kill in % after 1d (0.8 ppm, cabbage leaves (Brassica oleracea) dipped, after 1 d) [%] |
| --- | --- | --- |
| CN/C(=N\[N+](=O)[O-])NCc1cnc(Cl)s1 [Clothianidin] | 0 |  |
| N#C/N=C1\SCCN1Cc1ccc(Cl)nc1 [Thiacloprid] |  | 30 |
